Here are results for 20 molecules from patent US20260317312A1, “ISOXAZOLIDINES AS RIPK1 INHIBITORS AND USE THEREOF” (GENZYME CORPORATION, priority 2023, published 2026).

In one assay the test system is U937 cells. In words: Cellular assay in U937 cells to measure activity of RIPK1-inhibitors on cell death (necroptosis). The assay is classed as cell-based. The conditions noted are these: overnight (18 to 24 hrs), 37° C., MTS readout. The text has this: Upon TNF-Receptor I ligation, Ser/Thr kinase RIPK1 is recruited to a transient receptor complex I. Upon modification of RIPK1 which promotes activation of RIPK1, complex lib can form, that involves recruitment of RIPK3 and MLKL (mixed lineage-kinase domain-like protein) which then translocates from the cytosol to the plasma membrane to execute cell death (Cai, Z. et al, Nat. Cell Biol. (2014)16:55-65).
Cell death was quantified in 96 well plates by determination of the amount of live cell using a CellTiter 96 Aqueous reagent (Promega), a calorimetric method to measure the number of live cells by reducing tetrazolium compound [3-(4,5-dimethylthiazol-2-yl)-5-(3-carboxymethoxyphenyl)-2-(4-sulfophenyl)-2H-tetrazolium, inner salt; MTS] into formazan. Absorbance of formazan was read at 490 nm. The inhibitory activity of the test compound was quantified in a concentration response curve (CRC) experiment.
Compounds were obtained as 10 mM stock solutions and were diluted 1 to 10 volumes with DMSO to yield a 1 mM solution. From this solution 2 μl were diluted with 998 μl growth medium. 100 μl of 2 μM compound solution was further diluted sequentially with a dilution factor of 2.5 by adding 150 μl growth medium. A total of 10 concentrations were tested ranging from 10 μM to 0.26 nM or from 1 μM to 0.07 nM.
U937 cells were cultured in RPM11640 Glutamax and 10% heat inactivated FBS. 50 μl cell suspension containing 1×10^6 cells/ml supplemented with 50 μM zVAD.fmk (Benzyloxycarbonyl-Val-Ala-Asp (Ome) fluoromethylketone) and 100 ng/ml recombinant human TNFα were dispensed in each well of a 96-well plate. 50 μl of compound dilutions (described in Cellular assay in U937 cells) were added and the cell suspension incubated overnight (18 to 24 hrs) at 37° C., 5% CO2 in a humidified atmosphere (95% rH). High (no compound) and low control (no TNFα, zVAD.fmk) were tested with 7 replicates; all compound concentrations were tested in duplicates on each experimental plate.
CellTiter 96 Aqueous reagent was mixed (100 μl PMS (phenazine methosulfate) solution/2 ml MTS (3-(4,5-[…])-5-(3-carboxymethoxyphenyl)-2-(4-sulfophenyl)-2H-tetrazolium, inner salt) solution) and 20 μl were added per well. After 4 hrs incubation at 37° C. (5% CO2 95% rH) optical density was measured at 490 nm on a microplate reader (Tecan Infinite M1000).
The % inhibition is expressed as percentage of the maximal inhibition value obtained in the absence of TNFα/zVAD.fmc.

Assay [1] deals with T1, hRIPK1 (aa 1-375) fusion protein (Homo sapiens, UniProt Q13546).
T1 construct: hRIPK1 (aa 1-375) fusion protein
T1 sequence (Q13546 1-375): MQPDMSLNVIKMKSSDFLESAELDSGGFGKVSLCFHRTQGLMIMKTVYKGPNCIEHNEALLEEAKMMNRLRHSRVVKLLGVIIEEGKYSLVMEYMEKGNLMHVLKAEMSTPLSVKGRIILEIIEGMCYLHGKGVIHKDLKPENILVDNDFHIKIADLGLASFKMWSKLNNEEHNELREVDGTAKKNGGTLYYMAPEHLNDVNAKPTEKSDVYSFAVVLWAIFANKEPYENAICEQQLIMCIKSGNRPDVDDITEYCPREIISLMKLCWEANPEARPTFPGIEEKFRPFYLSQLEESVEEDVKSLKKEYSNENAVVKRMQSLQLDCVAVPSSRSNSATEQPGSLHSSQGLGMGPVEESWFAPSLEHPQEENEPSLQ
In words: Receptor-Interacting Protein Kinase 1 inhibition, ADP Glo assay (conversion of ATP to ADP due to autophosphorylation). The assay is classed as biochemical. The following applies: ATP 50 μM, 30 min preincubation, 240 min incubation, room temperature, DMSO 1%. The protocol: The catalytic activity of RIPK1 was measured by monitoring the conversion of Adenosine triphosphate (ATP) to Adenosine diphosphate (ADP) due to autophosphorylation using an ADP-Glo kinase kit (Promega, catalog no. V9104).
In detail, 2 μl recombinantly produced hRIPK1 (aa 1-375) fusion protein (end concentration 3.6 μg/ml) and 2 μl compound (end concentration 33300-1.69 nM; DMSO end concentration 1%) were incubated for 30 minutes at room temperature and then 2 μl ATP (ADP Glo kit, end concentration 50 μM) were added. After another 240 minutes incubation at room temperature, 5 μl Promega ADP-Glo reagent I was added to quench the reaction and deplete unconsumed ATP. After an incubation period of 30 minutes, 10 μl Promega ADP-Glo detection reagent II was added resulting in conversion of ADP to ATP, which generates a light-reaction between luciferase and luciferin. Luminescence was quantified after 30 minutes with a Pherastar FS (BMG LABTECH, Ortenberg).
The adjustment was obtained by nonlinear regression using the Levenberg Marquardt algorithm.

[2] abbreviates: Homo sapiens, U-937, TNFα/zVAD.fmk induced cell death (necroptosis).
Where [3] appears, read: TNFα/zVAD.fmk induced cell death (necroptosis).

Structures are written as SMILES.

For `N#Cc1cc(OC[C@H]2CC[C@H](C(=O)N3OCC[C@H]3c3cc(F)cc(F)c3)CC2)ncn1` [Compound 45, trans-6-((4-((S)-3-(3,5-difluorophenyl)isoxazolidine-2-carbonyl)cyclohexyl)methoxy)pyrimidine-4-carbonitrile], the half-maximal inhibitory concentration (IC50) turned out to be 38 nM in the assay with U937 cells (setting [2]) and 44 nM in assay [1].
On to `N#Cc1cc(F)cc(OC[C@H]2CC[C@H](C(=O)N3OCC[C@H]3c3cc(F)cc(C#N)c3)CC2)c1` [Compound 49, trans-3-((S)-2-(4-((3-cyano-5-fluorophenoxy)methyl)cyclohexane-1-carbonyl)isoxazolidin-3-yl)-5-fluorobenzonitrile], for which the figures for the IC50 (in the assay on U937 cells (setting [2]); in assay [1]) were 18 nM and 44 nM, respectively.
For the molecule `Cc1nnc(C)n1-c1ccc(OC[C@H]2CC[C@H](C(=O)N3OCC[C@H]3c3cc(F)cc(F)c3)CC2)c(F)c1` [Compound 67, trans-((S)-3-(3,5-difluorophenyl)isoxazolidin-2-yl)(4-((4-(3,5-dimethyl-4H-1,2,4-triazol-4-yl)-2-fluorophenoxy)methyl)cyclohexyl)methanone], the figures for the IC50 (in the assay with U937 cells (setting [2]); in assay [1]) were 128 nM and 46 nM, respectively.
Take `N#Cc1cc(F)cc([C@@H]2CCON2C(=O)C2CCC(COc3cc(C(N)=O)ncn3)C2)c1` (single isomer, unassigned; stereoisomer 3) [Compound 117]: the concentration for half-maximal inhibition (IC50) in the assay on U937 cells (setting [3]) stood at 675 nM; in assay [1], 50 nM.
Consider `O=C([C@H]1C[C@@H](n2ccc3cc(F)ccc32)C1)N1OCC[C@H]1c1cc(F)cc(F)c1` [Compound 108, cis-[(3S)-3-(3,5-difluorophenyl)isoxazolidin-2-yl]-[3-(5-fluoroindol-1-yl)cyclobutyl]methanone], for which the values for the IC50 (with U937 cells (setting [2]); in assay [1]) were 94 nM and 26 nM, respectively.
Regarding `N#Cc1cncc([C@@H]2CCON2C(=O)[C@H]2CC[C@H](COc3ccc(F)c(C#N)c3)CC2)c1` [Compound 72, trans-5-((S)-2-(4-((3-cyano-4-fluorophenoxy)methyl)cyclohexane-1-carbonyl)isoxazolidin-3-yl)nicotinonitrile], the values for the IC50 (in the assay with U937 cells (setting [2]); in assay [1]) were 13 nM and 15 nM, respectively.
As to `O=C([C@H]1C[C@H](n2ncc3cc(F)ccc32)C1)N1OCC[C@H]1c1cc(F)cc(F)c1` [Compound 97, trans-[(3S)-3-(3,5-difluorophenyl)isoxazolidin-2-yl]-[3-(5-fluoroindazol-1-yl)cyclobutyl]methanone], the 50% inhibitory concentration (IC50) with U937 cells (setting [2]) is 151 nM; in assay [1], 38 nM.
Regarding `N#Cc1cc(OC[C@H]2CC[C@H](C(=O)N3OCC[C@H]3c3cc(F)cc(F)c3)CC2)ccc1F` [Compound 43, trans-5-((4-((S)-3-(3,5-difluorophenyl)isoxazolidine-2-carbonyl)cyclohexyl)methoxy)-2-fluorobenzonitrile], the IC50 in the assay on U937 cells (setting [2]) worked out at 2 nM; in assay [1], 11 nM.
Consider `N#Cc1ccc(OC[C@H]2CC[C@H](C(=O)N3OCC[C@H]3c3cncc(C#N)c3)CC2)nc1` [Compound 95, trans-5-((S)-2-(4-(((5-cyanopyridin-2-yl)oxy)methyl)cyclohexane-1-carbonyl)isoxazolidin-3-yl)nicotinonitrile], for which the IC50 is 35 nM in the assay on U937 cells (setting [2]) and 15 nM in assay [1].
On to `NC(=O)c1ccc(OC[C@H]2CC[C@H](C(=O)N3OCC[C@H]3c3cnccn3)CC2)nc1` [Compound 102, trans-6-[[4-[(3S)-3-pyrazin-2-ylisoxazolidine-2-carbonyl]cyclohexyl]methoxy]pyridine-3-carboxamide], for which the results for the IC50 (in the assay on U937 cells (setting [2]); in assay [1]) were 257 nM and 47 nM, respectively.
Regarding `NC(=O)c1cc(OCC2CCC(C(=O)N3OCC[C@H]3c3cc(F)cc(F)c3)C2)ncn1` (single isomer, unassigned; stereoisomer 2) [Compound 119], the 50% inhibitory concentration (IC50) with U937 cells (setting [3]) was found to be 388 nM; in assay [1], 29 nM.
`O=C([C@H]1C[C@@H](n2cc3cc(F)ccc3n2)C1)N1OCC[C@H]1c1cc(F)cc(F)c1` [Compound 110, cis-[(3S)-3-(3,5-difluorophenyl)isoxazolidin-2-yl]-[3-(5-fluoroindazol-2-yl)cyclobutyl]methanone]: the half-inhibitory concentration (IC50) with U937 cells (setting [2]) came to 97 nM; in assay [1], 62 nM.
As for `CCOC(=O)c1ncnc(Cl)c1N[C@H]1C[C@@](C)(C(=O)N2OCC[C@H]2c2cc(F)cc(F)c2)C1` [Compound 9, ethyl cis-6-chloro-5-((3-((S)-3-(3,5-difluorophenyl)isoxazolidine-2-carbonyl)-3-methylcyclobutyl)amino)pyrimidine-4-carboxylate], the IC50 came to 757 nM in the assay on U937 cells (setting [2]) and 366 nM in assay [1].
In the case of `N#Cc1cc(F)cc([C@@H]2CCON2C(=O)[C@H]2C[C@@H](Nc3nccc(C#N)n3)C2)c1` [Compound 19, cis-2-((3-((S)-3-(3-cyano-5-fluorophenyl)isoxazolidine-2-carbonyl)cyclobutyl)amino)pyrimidine-4-carbonitrile], the figures for the half-inhibitory concentration (IC50) (with U937 cells (setting [2]); in assay [1]) were 757 nM and 66 nM, respectively.
Take `N#Cc1cc(OC[C@H]2CC[C@@H](C(=O)N3OCC[C@H]3c3cc(F)cc(F)c3)CC2)ccc1F` [Compound 52, cis-5-((4-((S)-3-(3,5-difluorophenyl)isoxazolidine-2-carbonyl)cyclohexyl)methoxy)-2-fluorobenzonitrile]: the half-maximal inhibitory concentration (IC50) in the assay on U937 cells (setting [2]) was 6 nM; in assay [1] it was 18 nM.
Regarding `N#Cc1cc(F)cc([C@@H]2CCON2C(=O)C2CCCC(COc3cc(C(N)=O)ncn3)CC2)c1` (single isomer, unassigned; stereoisomer 2) [Compound 127], the IC50 with U937 cells (setting [3]) is 31 nM; in assay [1], 17 nM.
Consider `N#Cc1cc(F)cc([C@@H]2CCON2C(=O)[C@H]2C[C@@H](n3cnc4cc(F)ccc43)C2)c1` [Compound 70, cis-3-fluoro-5-((S)-2-(3-(5-fluoro-1H-benzo[d]imidazol-1-yl)cyclobutane-1-carbonyl)isoxazolidin-3-yl)benzonitrile], for which the figures for the IC50 (in the assay with U937 cells (setting [2]); in assay [1]) were 349 nM and 39 nM, respectively.
As for `N#Cc1cc(F)cc(N[C@H]2C[C@@H](C(=O)N3OCC[C@H]3c3ccc(F)c(F)c3)C2)c1` [Compound 27, cis-3-((3-((S)-3-(3,4-difluorophenyl)isoxazolidine-2-carbonyl)cyclobutyl)amino)-5-fluorobenzonitrile], the IC50 was 170 nM in the assay with U937 cells (setting [2]) and 49 nM in assay [1].
The like results for `N#Cc1cc(F)cc(OC[C@H]2CC[C@H](C(=O)N3OCC[C@H]3c3cc(F)cc(F)c3)CC2)c1` [Compound 48, trans-3-((4-((S)-3-(3,5-difluorophenyl)isoxazolidine-2-carbonyl)cyclohexyl)methoxy)-5-fluorobenzonitrile] were, in that order, 13 nM and 44 nM.
The molecule `N#Cc1cc(F)cc([C@@H]2CCON2C(=O)[C@H]2CC[C@@H](Nc3cc(C#N)ncn3)CC2)c1` [Compound 28, cis-6-((4-((S)-3-(3-cyano-5-fluorophenyl)isoxazolidine-2-carbonyl)cyclohexyl)amino)pyrimidine-4-carbonitrile] returned an IC50 in assay [1] of 162 nM.
